Test results reported in publication PMC10848080 (CNS Neuroscience & Therapeutics, 2023).
≈ marks a conversion by molar mass, not a printed value.

Legend:
6-OHDA-lesioned rats = assay: Open-field test in 6-OHDA-lesioned rats; assay type: in vivo, rat; settings: L-dopa 60 mg/kg, PIP 20 mg/kg, once a day for 6 weeks
Experimental: Adaptively raised for 1 week, SD rats were randomly divided into two groups: the sham‐operated group (n = 6) and the 6‐OHDA‐lesioned group (n = 36). After deep anesthesia, the rats were stereotaxically injected with 3 μL 6‐OHDA (4 mg/mL in 0.02% ascorbic acid saline; Sigma) into the left striatum following our previously described protocol,[17] and the rats in sham group were injected with 3 μL vehicle (0.02% ascorbic acid saline).
(§1) The damage of rat dopaminergic neurons was assessed by apomorphine (APO, Sigma)‐induced rotation tests at the 5th, 8th, and 11th weeks of experiment.[17] […] The dosages of PIP used in the present study were safe for rats.[21] Rats were treated once a day for 6 weeks. The 6‐OHDA group and sham group were treated with the same volume of substrate solution (0.5% CMC‐Na).
Open‐field test was conducted on the 2nd day after the rotation test. The movements in 5 min of rats in open‐field apparatus (100 × 100 × 40 cm), including total movement distance (cm) and horizontal velocity (cm/s), were recorded by the TruScan Activity Monitoring System (USA). Abnormal involuntary movements (AIMs) were scored according to the rating system described in Lee's study.[22] […] Then, the dyskinesia behaviors of rats, including axial dystonia, reverse rotation, and limb and masticatory dyskinesia, were evaluated during a 1‐min monitoring period, repeated every 20 min for 2 h. […]

E. faecalis [1] = assay: qPCR quantification of E. faecalis in feces of 6-OHDA-lesioned rats; assay type: in vivo, rat; settings: PIP 10 and 20 mg/kg after 3 weeks, dose-dependent, combination vs L-dopa after 6 weeks
Experimental: as §1
(§2) Fecal microbial genomic DNA was extracted using the TIANamp Stool DNA Kit (TIANGEN). Plasmids containing the target sequences of E. faecalis 16 S rRNA and TDC were prepared (Figure S1A,B). Then, 10‐fold serial dilutions of plasmid were used as the templates to make the standard curves for absolute quantification. Quantitative PCR (qPCR) experiments were performed on 40 ng DNA in 20 μL reactions, following the amplification program: initial denaturation at 95°C for 15 min, 45 cycles of 95°C for 10 s, 58°C for 31 s, 72°C for 30 s, ended with a final extension at 72°C for 10 min. The absolute E. faecalis 16 S rRNA gene and TDC gene copies in fecal DNA samples were calculated based on the standard curves.

E. faecalis [2] = assay: qPCR of E. faecalis in feces of E. faecalis-transplanted rats; assay type: in vivo, rat; settings: 1 week of administration, combination vs L-dopa alone
Experimental: as §2

DA in rat striatum = assay: Striatal DA content by HPLC-ECD in 6-OHDA-lesioned rats; assay type: in vivo; settings: 6 weeks, L-dopa vs 6-OHDA, combination vs L-dopa alone in lesioned striatum
TDC [3] = assay: TDC gene expression and specific activity in feces of E. faecalis-transplanted rats; assay type: in vivo, rat; settings: 1 week of administration, combination vs L-dopa alone
Experimental: as §2
(§3) The rat feces were weighed and suspended in lysis buffer. After centrifugation at 800 g for 10 min, the supernatants were collected and added with lysozyme. The mixtures were centrifuged at 12,000 g for 20 min, and the supernatants were obtained for protein concentration determination and the detection of TDC level in rat feces using rat TDC ELISA kit (MM‐71824R1, MEIMIAN). The results are expressed as U/mg protein.

TDC [4] = assay: qPCR quantification of TDC in feces of 6-OHDA-lesioned rats; assay type: in vivo, rat; settings: PIP dose-dependent, after 3 weeks, vs 6-OHDA
Experimental: as §1, §2

E. faecalis ATCC29212 = assay: L-dopa conversion rate in E. faecalis ATCC29212 culture; assay type: cell-based, Enterococcus faecalis; settings: 24 h, anaerobic, vs L-dopa alone
Experimental: (§4) The column was maintained at 40°C.
(§5) The growth control group and negative control group were set. The cultures were incubated at 37°C under an anaerobic environment. The 1 mL of incubation sample and twofold cold acetonitrile were added to terminate the incubation. After centrifugation at 12,000 g for 10 min, the supernatants were collected for HPLC‐FLD analysis.

[5] = PIP 10 and 20 mg/kg, rats; cited from earlier work
[6] = parameters: method as in PMID 23603295; settings: previous studies; cited from earlier work
MAO = tested on: MAO; parameters: method as in PMID 32099971; settings: reported; cited from earlier work
[7] = molecular target: T1, TDC (from E. faecalis NCTC6783) (Enterococcus faecalis, UniProt P0DTQ4); assay: TDC enzyme assay (DA produced from L-dopa); assay type: biochemical; settings: 250 μM PIP, L-dopa 0.3 mM, pH 5.5, relative to solvent control
T1 construct: purchased Aladdin
T1 sequence (P0DTQ4 1-620): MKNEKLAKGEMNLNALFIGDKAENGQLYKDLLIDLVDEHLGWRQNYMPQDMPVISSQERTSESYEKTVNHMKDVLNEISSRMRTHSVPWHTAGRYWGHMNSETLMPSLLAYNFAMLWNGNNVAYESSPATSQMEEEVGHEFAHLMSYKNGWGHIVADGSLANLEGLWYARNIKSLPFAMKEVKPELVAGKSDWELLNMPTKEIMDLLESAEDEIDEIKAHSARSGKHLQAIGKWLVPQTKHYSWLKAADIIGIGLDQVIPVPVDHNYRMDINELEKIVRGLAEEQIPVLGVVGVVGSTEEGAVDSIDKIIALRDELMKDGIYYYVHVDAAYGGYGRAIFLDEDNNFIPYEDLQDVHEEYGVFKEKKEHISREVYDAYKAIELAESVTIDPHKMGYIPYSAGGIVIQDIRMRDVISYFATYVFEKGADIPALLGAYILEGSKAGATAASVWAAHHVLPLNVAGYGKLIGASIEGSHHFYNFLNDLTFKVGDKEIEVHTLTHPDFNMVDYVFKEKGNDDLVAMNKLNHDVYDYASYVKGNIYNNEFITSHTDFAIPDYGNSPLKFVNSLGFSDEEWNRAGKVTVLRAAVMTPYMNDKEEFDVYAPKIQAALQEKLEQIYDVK
Experimental: (§6) TDC (from E. faecalis NCTC6783, Aladdin; 0.02 mg/mL) and PLP (2 mM, Sigma) were pre‐incubated with various concentrations (0.01–250 μM) of PIP in 0.2 M sodium acetate buffer (pH = 5.5) at 37°C for 15 min. […] After 20 min of incubation, the reaction was quenched by diluting 1:10 in methanol containing 0.7% perchloric acid.[25] The mixture was centrifuged at 12,000 g (4°C) for 5 min, and the supernatant was collected for the determination of DA by HPLC‐ECD.

[8] = L-dopa conversion rate in rat whole blood and tissue homogenates in vitro; assay type: in vitro ADME; settings: L-dopa 0.3 mM + PIP 10 or 20 μg/mL, 12 and 24 h, vs L-dopa alone
Experimental: as §4
(§7) The whole blood, colon contents, jejunum, and brain tissues of SD rats (n = 6) were collected. Colonic contents were pooled and suspended in anaerobic medium (Aobox) at a ratio of 1:20 (g/mL), the mixtures were centrifuged at 800 g (4°C) for 10 min, and then collected the supernatant for culture. Tissues were pooled and weighed, then homogenized with 5 mM phosphate buffer (pH = 7.4) at the ratio of 1:5 (g/ml). […] The intestinal bacterial cultures were incubated in an anaerobic chamber, while tissues or blood incubation systems were incubated at 37°C for 12 and 24 h, and then the incubation was terminated with three‐fold acetonitrile. After centrifugation at 12,000 g for 10 min, the supernatants were collected for HPLC‐FLD analysis.

TDC in E. faecalis = assay: ELISA of TDC specific activity in E. faecalis ATCC29212; assay type: cell-based, Enterococcus faecalis; settings: PIP 10 or 20 μg/mL, 24 h
Experimental: as §5
The bacterial protein was extracted from the culture pellets generated as described above. After being washed with PBS three times, the bacterial pellets were re‐suspended in 400 μL PBS containing 2% ethanol and incubated in ice bath for 30 min. After centrifugation at 1000 g for 10 min, the sediments were collected and lysed using lysis buffer containing 100 μg/mL lysozyme, then centrifuged at 12,000 g for 20 min to collect the supernatants. After determining the protein concentration using the BCA kit (Beyotime), the assay of TDC level in E. faecalis was performed according to the Microorganism TDC Elisa kit (MM‐925239O2, MEIMIAN) guideline. Briefly, the extracted protein samples were added to the coated wells together with the balance solution and HRP conjugate reagent, then incubated at 37°C. […] After adding the stop solution to each well, the optical density was measured at the wavelength of 450 nm. The specific activity of TDC was calculated based on the standard curve. The results are expressed as U/mg protein.

TDC [9] = assay: ELISA of TDC specific activity in feces of 6-OHDA-lesioned rats; assay type: in vivo, rat; settings: 6-OHDA-lesioned rats after 6 weeks of administration; combination vs L-dopa alone
Experimental: as §3

[10] = tested on: intestinal bacteria of SD rats; assay: L-dopa conversion rate in rat intestinal bacteria (feces) culture in vitro; assay type: cell-based; settings: 24 h, anaerobic, vs L-dopa alone
Experimental: as §4, §7

[11] = Solubility limit of PIP in the TDC enzyme assay; assay type: physicochemical; settings: 37 °C, pH 5.5, aqueous buffer
Experimental: as §6

[12] = tested on: tyrosine hydroxylase (TH); assay: Western blot of tyrosine hydroxylase in lesioned substantia nigra; assay type: in vivo, rat; settings: 6-OHDA-lesioned rats, 6 weeks
Experimental: as §1
The left substantia nigra (SN) of rat was lysed using non‐denaturing lysis buffer, and immunoblotting was performed following the reported protocol.[19] Protein homogenates were subjected to Western blot analysis using antibodies against tyrosine hydroxylase (TH, 1:1000, Sigma) and GAPDH (1:2000, Proteintech). The blots were visualized by a NcmECL Ultra Western blot diction kit (NCM Biotech), and densitometry was analyzed by using the Fusion FX Image system (Vilber Lourmat).

[13] = tested on: TDC mRNA in E. faecalis ATCC29212; assay: RT-qPCR of TDC gene expression in E. faecalis ATCC29212; assay type: cell-based, Enterococcus faecalis; settings: PIP 10 or 20 μg/mL, 24 h
Experimental: as §5
Total RNA was extracted from the culture pellets generated in the experiment described above “Incubation of E. faecalis in vitro” using the RNAprep Pure Cell/Bacteria Kit (TIANGEN). A FastQuant RT Kit (with gDNase) (TIANGEN) was used to transcribe RNA to cDNA. After that, RT–qPCR was conducted using 2 × SuperReal PreMix Plus (TIANGEN) and performed on the CFX Connect™ Real‐Time System (Bio–Rad) following the amplification program: 95°C for 15 min, followed by 40 cycles of 95°C for 10 s, 52°C for 31 s, and 72°C for 30 s. The program ended with a final extension at 72°C for 10 min. The relative gene expression was calculated using the 2^−^ΔΔ^Ct method.

**Q.** Which results are given for `N[C@@H](Cc1ccc(O)c(O)c1)C(=O)O` [L‐dopa, Levodopa]?
**A.** movement speed in open field (6-OHDA-lesioned rats): alleviate the bradykinesia; total movement distance in open field (6-OHDA-lesioned rats): alleviate the bradykinesia; abundance of E. faecalis in feces (qPCR) (E. faecalis [1]): did not show a notable effect; abundance of E. faecalis in feces (E. faecalis [2]): no significant effect; DA level in striatum (HPLC-ECD) (DA in rat striatum): significantly increased; expression of TDC in feces (TDC [3]): upregulation; expression of TDC in feces (qPCR) (TDC [4]): further increased

**Q.** Which “abundance of E. faecalis in feces (qPCR)” value (E. faecalis [1]) does the source give for `O=C(/C=C/C=C/c1ccc2c(c1)OCO2)N1CCCCC1` [PIP, piperine] here?
**A.** Its value is “significantly reduce”.

**Q.** And the “decrease of CR of L-dopa” value (E. faecalis ATCC29212; PIP 10 μg/mL + L-dopa 0.3 mM)?
**A.** The value was 17.22%.

**Q.** And the “decrease of CR of L-dopa” value (E. faecalis ATCC29212; PIP 20 μg/mL + L-dopa 0.3 mM)?
**A.** Its value is 32.01%.

**Q.** And the “safety of the dosages used” value [5]?
**A.** The value was “safe”.

**Q.** And the “crossing of the blood-brain barrier” value [6]?
**A.** The value was “can cross”.

**Q.** And the tissue distribution [6]?
**A.** Its tissue distribution is “wide tissue distribution”.

**Q.** What about the MAO inhibition (MAO) of the same molecule?
**A.** Its MAO inhibition is “potential to inhibit MAO activity”.

**Q.** And the “decrease in TDC activity” value [7]?
**A.** The value was 20.95%.

**Q.** And the “CR of L-dopa in brain homogenate” value ([8]; rat brain homogenate)?
**A.** Its value is “no significant difference”.

**Q.** And the “CR of L-dopa in small intestine homogenate” value ([8]; rat small intestine homogenate)?
**A.** Its value is “no significant difference”.

**Q.** What about the “CR of L-dopa in blood” value ([8]; rat whole blood) of the same molecule?
**A.** The value was “no significant difference”.

**Q.** And the “specific activity of TDC in E. faecalis” value (TDC in E. faecalis)?
**A.** The value was “reduced”.

**Q.** And the “specific activity of TDC in feces (ELISA)” value (TDC [9])?
**A.** The value was “significantly decrease”.

**Q.** And the “decrease of conversion rate (CR) of L-dopa” value ([10]; PIP 10 μg/mL + L-dopa 0.3 mM)?
**A.** Its value is 17.02%.

**Q.** What about the “decrease of conversion rate (CR) of L-dopa” value ([10]; PIP 20 μg/mL + L-dopa 0.3 mM) of the same molecule?
**A.** Its value is 27.55%.

**Q.** What about the solubility [11] of the same molecule?
**A.** Its solubility is 250 µM (≈ 71.3 µg/mL).

**Q.** What about the “lesions of dopaminergic neurons (TH protein level in SN)” value [12] of the same molecule?
**A.** The value was “efficiently attenuate the lesions”.

**Q.** What about the “gene expression of TDC in E. faecalis” value [13] of the same molecule?
**A.** The value was “reduced”.

**Q.** And the “expression of TDC in feces (qPCR)” value (TDC [4])?
**A.** The value was “significantly suppressive effect”.
